Reference: paper PMC7031696 (Cell chemical biology, 2019)
Where two headings read alike, the source gives them in different places.

Key:
[1] = test system: asynchronous 3D7-A10 parasite cultures; assay: Standard 72-h exposure asexual blood stage susceptibility assay (IC50^72h); format: cell-based, Plasmodium falciparum; details: Plasmodium falciparum, 3D7, 72 h, read-out: Overall (72hr assay) Mean IC50 (IC50^72h)
[2] = test system: Plasmodium falciparum 3D7-A10 parasites; assay: Stage specificity assay (8-h exposure of synchronized stages, IC50^8h); format: cell-based; details: for Ratio lowest IC50 8hr/IC50 72hr: 3D7-A10; for IC50: Plasmodium falciparum
[3] = test system: 3D7-MR4 trophozoite parasite-infected RBCs; assay: Metabolomic profiling (hydrophilic metabolite changes, UHPLC-MS); format: cell-based, Plasmodium falciparum
[4] = 3D7, read-out: Early rings IC50 (IC50^8h), 8-h exposure 0–8 hr, bound given in μM
[5] = 3D7, read-out: Early trophozoites Mean IC50 (IC50^8h), 8-h exposure 16–24 hr, 3D7-A10, survival at 60 h
[6] = 3D7, read-out: Late rings IC50 (IC50^8h), 8-h exposure 8–16 hr, bound given in μM
[7] = 3D7, read-out: Late trophozoites Mean IC50 (IC50^8h), 8-h exposure 24–32 hr, 3D7-A10, survival at 60 h
[8] = 3D7, read-out: Schizonts Mean IC50 (IC50^8h), 8-h exposure 32–40 hr, 3D7-A10, survival at 60 h

O=CN(O)CCCP(=O)(O)O [Fosmidomycin, reference compound]
IC50 [1]: 405 nM
Ratio lowest IC50 8hr/IC50 72hr [2]: 4.9
IC50 ([2]; 3D7, 8 h, read-out: IC50^8h values at all tested stages, 8-h exposures, all asexual blood stages): > 1 µM
IC50 [2, 4]: > 10 µM
IC50 [2, 5]: 1.98 µM
IC50 [2, 6]: > 10 µM
IC50 [2, 7]: 1.99 µM
IC50 ([2]; 3D7, read-out: Schizonts IC50 (IC50^8h), 8-h exposure 32–40 hr, bound given in μM): > 10 µM
Peak Activity (Table S1) ([2]; stage(s) with the lowest IC50^8h): Trophs

CCOC(=O)C1=C(C)NC2=C(C(=O)CC(c3ccc(OC)c(OC)c3)C2)C1c1ccccc1Cl (stereo not drawn) [GNF-Pf-5660, reference compound]
IC50 [1]: 4.4 nM
peptide levels (hemoglobin catabolism signature) ([3]; 10 × IC50^72h, 2.5 hr, trophozoites): decreased peptide levels
Log2(fold changes) 3-phosphoglycerate ([3]; metabolite 3-phosphoglycerate, log2 fold change): 0.0553
Log2(fold changes) 4-Pyridoxic acid ([3]; metabolite 4-Pyridoxic acid, log2 fold change): 0.0311
Log2(fold changes) 4-aminobutyrate ([3]; metabolite 4-aminobutyrate, log2 fold change): -0.1913
Log2(fold changes) 4-phosphopantetheine ([3]; metabolite 4-phosphopantetheine, log2 fold change): -0.0588
Log2(fold changes) 4-phosphopantothenate ([3]; metabolite 4-phosphopantothenate, log2 fold change): -0.0656
Log2(fold changes) 5-aminopentanoic acid ([3]; metabolite 5-aminopentanoic acid, log2 fold change): 0.0000
Log2(fold changes) 5-methyl-THF ([3]; metabolite 5-methyl-THF, log2 fold change): 0.0000
Log2(fold changes) 5-phosphoribosyl-1-pyrophosphate ([3]; metabolite 5-phosphoribosyl-1-pyrophosphate, log2 fold change): 0.0000
Log2(fold changes) 6-phospho-D-gluconate ([3]; metabolite 6-phospho-D-gluconate, log2 fold change): -0.0448
Log2(fold change) HVDD ([3]; metabolite HVDD): -2.3471
Log2(fold change) Hydroxyisocaproic acid ([3]; metabolite Hydroxyisocaproic acid): 0.0000
Log2(fold change) IDP ([3]; metabolite IDP): 0.0000
Log2(fold change) IMP ([3]; metabolite IMP): -0.0436
Log2(fold change) Inositol ([3]; metabolite Inositol): 0.0000
Log2(fold change) Isopentyl-PP ([3]; metabolite Isopentyl-PP): 0.0000
Log2(fold change) L-arginino-succinate ([3]; metabolite L-arginino-succinate): -1.4037
Log2(fold change) LD ([3]; metabolite LD): 0.0323
Log2(fold change) Myristoyl/tetradecanoyl-CoA ([3]; metabolite Myristoyl/tetradecanoyl-CoA): 0.0000
Log2(fold change) N-Acetyl-L-alanine ([3]; metabolite N-Acetyl-L-alanine): -0.5679
Log2(fold change) N-acetyl-L-ornithine ([3]; metabolite N-acetyl-L-ornithine): -1.3851
Log2(fold change) N-acetyl-glucosamine-1/6-phosphate ([3]; metabolite N-acetyl-glucosamine-1/6-phosphate): 0.1805
Log2(fold change) N-acetyl-glutamate ([3]; metabolite N-acetyl-glutamate): 0.1150
Log2(fold change) N-acetyl-glutamine ([3]; metabolite N-acetyl-glutamine): -0.5582
Log2(fold change) N-carbamoyl-L-aspartate ([3]; metabolite N-carbamoyl-L-aspartate): -0.1586
Log2(fold change) NAD+ ([3]; metabolite NAD+): -0.1007
Log2(fold change) NADH ([3]; metabolite NADH): 0.4611
Log2(fold change) NADP+ ([3]; metabolite NADP+): 0.0287
Log2(fold change) NADPH ([3]; metabolite NADPH): 0.0479
Log2(fold change) O-acetyl-L-serine ([3]; metabolite O-acetyl-L-serine): 0.0000
Log2(fold change) Octoluse 8/1P ([3]; metabolite Octoluse 8/1P): -0.0806
Log2(fold change) Octoluse Bisphosphate ([3]; metabolite Octoluse Bisphosphate): -0.3183
Log2(fold change) PD ([3]; metabolite PD): -1.8683
Log2(fold change) PE ([3]; metabolite PE): -1.8289
Log2(fold change) PEE ([3]; metabolite PEE): -1.8489
Log2(fold change) PEEK ([3]; metabolite PEEK): -2.1431
Log2(fold change) PVNF ([3]; metabolite PVNF): -2.1997
Log2(fold change) Pyroglutamic acid ([3]; metabolite Pyroglutamic acid): -0.1216
Log2(fold change) Pyrophosphate ([3]; metabolite Pyrophosphate): 0.0000
Log2(fold change) Ribose-5-phosphate ([3]; metabolite Ribose-5-phosphate): 0.0000
Log2(fold change) S-adenosyl-L-homocysteine ([3]; metabolite S-adenosyl-L-homocysteine): -0.0693
Log2(fold change) S-adenosyl-L-methioninamine ([3]; metabolite S-adenosyl-L-methioninamine): 0.0000
Log2(fold change) S-adenosyl-L-methionine ([3]; metabolite S-adenosyl-L-methionine): 0.0000
Log2(fold change) S-methyl-5'-thioadenosine ([3]; metabolite S-methyl-5'-thioadenosine): -0.0720
Log2(fold change) SD ([3]; metabolite SD): -1.1525
Log2(fold change) SDL ([3]; metabolite SDL): -1.7902
Log2(fold change) SID ([3]; metabolite SID): 0.0000
Log2(fold change) Sedoheptulose bisphosphate ([3]; metabolite Sedoheptulose bisphosphate): -0.1508
Log2(fold change) Thiamine pyrophosphate ([3]; metabolite Thiamine pyrophosphate): 0.0000
Log2(fold changes) UDP-D-glucose ([3]; metabolite UDP-D-glucose, log2 fold change): 0.0139
Log2(fold changes) UDP-D-glucuronate ([3]; metabolite UDP-D-glucuronate, log2 fold change): 0.0860
Log2(fold changes) UDP-N-acetyl-glucosamine ([3]; metabolite UDP-N-acetyl-glucosamine, log2 fold change): -0.0276
Log2(fold changes) UDP ([3]; metabolite UDP, log2 fold change): 0.1561
Log2(fold changes) UMP ([3]; metabolite UMP, log2 fold change): -0.3498
Log2(fold changes) UTP ([3]; metabolite UTP, log2 fold change): 0.0000
Log2(fold change) hydroxyphenylpyruvate ([3]; metabolite hydroxyphenylpyruvate): 0.0000
Log2(fold change) hydroxyproline/Aminolevulinate ([3]; metabolite hydroxyproline/Aminolevulinate): 0.0000
Log2(fold change) hypoxanthine ([3]; metabolite hypoxanthine): 0.0715
Log2(fold change) indole ([3]; metabolite indole): -0.1422
Log2(fold change) inosine ([3]; metabolite inosine): -0.1669
Log2(fold change) isoleucine ([3]; metabolite isoleucine): 0.0000
Log2(fold change) lactate ([3]; metabolite lactate): -0.0958
Log2(fold change) leucine ([3]; metabolite leucine): 0.0000
Log2(fold change) lysine ([3]; metabolite lysine): 0.0000
Log2(fold change) malate ([3]; metabolite malate): -0.8784
Log2(fold change) maleic acid ([3]; metabolite maleic acid): -0.8581
Log2(fold change) methionine ([3]; metabolite methionine): -0.1925
Log2(fold change) myo-inositol ([3]; metabolite myo-inositol): 0.0386
Log2(fold change) nicotinamide mononucleotide ([3]; metabolite nicotinamide mononucleotide): -0.1106
Log2(fold change) nicotinate ([3]; metabolite nicotinate): 0.1148
Log2(fold change) ornithine ([3]; metabolite ornithine): -0.1689
Log2(fold change) orotate ([3]; metabolite orotate): -0.3275
Log2(fold change) orotidine-5'-phosphate ([3]; metabolite orotidine-5'-phosphate): -1.3140
Log2(fold change) oxaloacetate ([3]; metabolite oxaloacetate): -0.1481
Log2(fold change) p-aminobenzoate ([3]; metabolite p-aminobenzoate): -0.1878
Log2(fold change) p-hydroxybenzoate ([3]; metabolite p-hydroxybenzoate): 0.0000
Log2(fold change) pantothenate ([3]; metabolite pantothenate): -0.2858
Log2(fold change) phenylalanine ([3]; metabolite phenylalanine): -0.3503
Log2(fold change) phenylpyruvate ([3]; metabolite phenylpyruvate): 0.0000
Log2(fold change) phosphoenolpyruvate ([3]; metabolite phosphoenolpyruvate): 0.2491
Log2(fold change) prephenate ([3]; metabolite prephenate): -0.5893
Log2(fold change) proline ([3]; metabolite proline): 0.0000
Log2(fold change) pyridoxine ([3]; metabolite pyridoxine): -0.1054
Log2(fold change) pyruvate ([3]; metabolite pyruvate): -0.3244
Log2(fold change) riboflavin ([3]; metabolite riboflavin): -0.0162
Log2(fold change) ribose ([3]; metabolite ribose): 0.0000
Log2(fold change) ribose-phosphate ([3]; metabolite ribose-phosphate): -0.2537
Log2(fold change) ribulose-5-phosphate ([3]; metabolite ribulose-5-phosphate): 0.0000
Log2(fold change) serine ([3]; metabolite serine): 0.0000
Log2(fold change) sn-glycerol-3-phosphate ([3]; metabolite sn-glycerol-3-phosphate): 0.1845
Log2(fold change) succinate/Methylmalonic acid ([3]; metabolite succinate/Methylmalonic acid): -0.0086
Log2(fold change) succinyl-CoA/methylmalonyl-CoA ([3]; metabolite succinyl-CoA/methylmalonyl-CoA): 0.0000
Log2(fold change) taurine ([3]; metabolite taurine): 0.0000
Log2(fold change) thiamine ([3]; metabolite thiamine): -0.1840
Log2(fold change) threonine/homoserine ([3]; metabolite threonine/homoserine): 0.0000
Log2(fold change) thymidine ([3]; metabolite thymidine): 0.0000
Log2(fold changes) thymine ([3]; metabolite thymine, log2 fold change): 0.0000
Log2(fold changes) trehalose-6-Phosphate ([3]; metabolite trehalose-6-Phosphate, log2 fold change): 0.0000
Log2(fold changes) tryptophan ([3]; metabolite tryptophan, log2 fold change): -0.0821
Log2(fold changes) tyrosine ([3]; metabolite tyrosine, log2 fold change): -0.1854
Log2(fold changes) uridine ([3]; metabolite uridine, log2 fold change): -0.2184
Ratio lowest IC50 8hr/IC50 72hr [2]: 18.0
IC50 ([2]; 3D7, read-out: Early rings Mean IC50 (IC50^8h), 8-h exposure 0–8 hr, 3D7-A10, survival at 60 h): 0.119 µM
IC50 [2, 5]: 0.108 µM
IC50 ([2]; 3D7, read-out: Late rings Mean IC50 (IC50^8h), 8-h exposure 8–16 hr, 3D7-A10, survival at 60 h): 0.238 µM
IC50 [2, 7]: 0.0793 µM
IC50 [2, 8]: 0.29 µM
Stage of peak activity (Figure 6) ([2]; period when the parasite was most susceptible (lowest IC50^8h)): rings and trophozoites

CCOC(=O)C1=C(C)N=c2s/c(=C\c3cc(Cl)ccc3O)c(=O)n2C1c1ccc(OC)cc1 (stereo not drawn) [MMV665971]
IC50 [1]: 185 nM
Ratio lowest IC50 8hr/IC50 72hr [2]: 2.6
killing in stage specificity assay ([2]; 8-h exposures, survival curves): incomplete killing at all asexual blood stages
IC50 [2, 4]: > 25 µM
IC50 [2, 5]: 0.496 µM
IC50 [2, 6]: > 25 µM
IC50 [2, 7]: 0.485 µM
IC50 [2, 8]: 0.523 µM
